Measurements reported in publication PMC4503722, “Novel Phenotypic Outcomes Identified for a Public Collection of Approved Drugs from a Publicly Accessible Panel of Assays” (PLoS ONE, 2015).
pEC50, pIC50: −log10 of the molar value. Read-outs that look alike come from different tables or passages of the source.

Tests used:
Experiment in all cases: cells
[1] = test system: nuclear β-catenin in C2C12 cells; format: cell-based
[2] = test system: endothelial tube formation in co-cultures of ECFCs and ADSCs treated with VEGF; format: cell-based, human; details: IC50 / EC50, endothelial tube area, ADSC/ECFC co-culture, read-out: Anti-Angiogenesis
NCI-H716 cells = format: cell-based, Human; details: NCI-H716
RKO = format: cell-based
INS-1E cells = format: cell-based, rat; details: INS-1E
HeLa cells = format: cell-based
DLD-1 = format: cell-based
[3] = test system: HCT116 cells treated with a GSK3β inhibitor; format: cell-based
SW480 = format: cell-based
Colo320 = format: cell-based
HT-29 = format: cell-based
SNU-C1 = format: cell-based
HCT116 = format: cell-based
[4] = Homo sapiens, IC50 / EC50, read-out: GLP 1 Secretion
[5] = Homo sapiens, RKO; read-out: Basal_Viability ATP RKO
[6] = Rattus norvegicus, IC50 / EC50, read-out: Insulin Secretion
[7] = Homo sapiens, HCT-116, GSK3b inhibitor pretreated, read-out: GSK3b inh pretreated_Viability ATP HCT116
[8] = Homo sapiens, COLO 320; read-out: Basal_Viability ATP Colo 320
[9] = Mus musculus, C2C12, IC50 / EC50, C2C12 beta-catenin translocation, read-out: Wnt Pathway
[10] = Homo sapiens, HT-29, read-out: Basal_Viability ATP HT-29
[11] = Homo sapiens, HeLa, IC50 / EC50; HeLa; read-out: CellCycle G2/M
[12] = Mus musculus, C2C12, Table 2, C2C12, […], 20 / 20.1 coded, read-out: Wnt pot. EC50
[13] = Homo sapiens, HT-29, Table 2, 72 h, Cell TiterGlo, non-adherent, 20 coded, read-out: HT-29 viab. IC50
[14] = Homo sapiens, read-out: GLP1 sec. EC50
[15] = Homo sapiens, RKO; Table 2; 72 h, Cell TiterGlo, non-adherent; 20 coded; read-out: RKO viab. IC50
[16] = Rattus norvegicus, read-out: Ins. sec. EC50
[17] = Homo sapiens, HeLa, S2 Table; HeLa; 20 = no response at highest concentration; read-out: CellCycle G2/M
[18] = Homo sapiens, DLD-1, 72 h, Table 2, 72 h, Cell TiterGlo, non-adherent, 20 coded, read-out: DLD-1 viab. IC50
[19] = Homo sapiens, SNU-C1, 72 h, Table 2, 72 h, Cell TiterGlo, non-adherent, 20 coded, read-out: SNU-C1 viab. IC50
[20] = Homo sapiens, COLO 320; Table 2; 72 h, Cell TiterGlo, non-adherent; 20 coded; read-out: Colo320 viab. IC50

Row | SMILES | pIC50 ([2]; Homo sapiens) | pEC50 (NCI-H716 cells; [4]) | pIC50 (RKO; [5]) | pEC50 (INS-1E cells; [6]) | pIC50 [3, 7] | pIC50 (Colo320; [8]) | pEC50 [1, 9] | pIC50 (HT-29; [10]) | pEC50 (HeLa cells; [11]) | pEC50 [1, 12] | pIC50 (HT-29; [13]) | pEC50 (NCI-H716 cells; [14]) | pIC50 (RKO; [15]) | pEC50 (INS-1E cells; [16]) | pEC50 (HeLa cells; [17]) | pIC50 (DLD-1; [18]) | pIC50 (SNU-C1; [19]) | pIC50 (Colo320; [20]) | other results
1 | COc1cccc2c1C(=O)c1c(O)c3c(c(O)c1C2=O)C[C@@](O)(C(=O)CO)C[C@@H]3O[C@H]1C[C@H](N2CCO[C@H](OC)C2)[C@H](O)[C@H](C)O1 [nemorubicin] | 8.52 | < 5.00 | 9.00 | < 5.00 | 9.00 | 9.00 | – | – | – | – | – | – | – | – | – | – | – | – | pEC50 ([1]; Mus musculus, IC50 / EC50, C2C12 beta-catenin translocation, read-out: Wnt Pathway): 7.87; pEC50 (HeLa cells; Homo sapiens; IC50 / EC50; HeLa; read-out: CellCycle G2/M): < 5.00; pIC50 (DLD-1; Homo sapiens, DLD-1, read-out: Basal_Viability ATP DLD-1): 9.00; pIC50 (SW480; Homo sapiens, SW480; read-out: Basal_Viability ATP SW480): 9.00
2 | CC(C)=CCNc1ncnc2c1ncn2[C@@H]1O[C@H](CO)[C@@H](O)[C@H]1O [Riboprine] | 5.58 | < 5.00 | – | < 5.00 | – | – | < 5.00 | < 4.70 | < 5.00 | – | – | – | – | – | – | – | – | – | pIC50 (SNU-C1; Homo sapiens, SNU-C1, read-out: Basal_Viability ATP SNU-C1): 5.05
3 | CC(C)n1c(/C=C/C(O)CC(O)CC(=O)O)c(-c2ccc(F)cc2)c2ccccc21 (centres unmarked) [fluvastatin, reference compound] | – | – | – | – | – | – | – | – | – | < 5.00 | < 4.70 | < 5.00 | 4.72 | < 5.00 | < 5.00 | < 4.70 | < 4.70 | 4.89 | pIC50 (RKO; Homo sapiens, RKO, read-out: Basal_Viability ATP RKO): 4.72; pIC50 (Colo320; Homo sapiens, COLO 320, read-out: Basal_Viability ATP Colo 320): 4.88
4 | CC[C@H]1CN2CCc3cc(OC)c(OC)cc3[C@@H]2C[C@@H]1C[C@H]1NCCc2cc(OC)c(OC)cc21 [emetine] | – | < 5.00 | 8.08 | < 5.00 | 9.00 | 7.66 | < 5.00 | 7.79 | < 5.00 | – | – | – | – | – | – | – | – | – | pIC50 (HCT116; Homo sapiens, HCT-116, basal, read-out: Basal_Viability ATP HCT116): 7.21; pIC50 (DLD-1; Homo sapiens, DLD-1, basal, read-out: Basal_Viability ATP DLD-1): 7.94; pIC50 (SNU-C1; Homo sapiens, SNU-C1, basal, read-out: Basal_Viability ATP SNU-C1): 8.64; pIC50 (SW480; Homo sapiens, SW480, basal; read-out: Basal_Viability ATP SW480): 9.00
5 | CCC(C)(C)C(=O)O[C@H]1C[C@@H](C)C=C2C=C[C@H](C)[C@H](CC[C@@H]3C[C@@H](O)CC(=O)O3)[C@H]21 [simvastatin, reference compound] | – | – | – | – | – | – | – | – | – | < 5.00 | < 4.70 | 5.48 | < 4.70 | < 5.00 | < 5.00 | < 4.70 | < 4.70 | 5.31 | pEC50 (NCI-H716 cells; Homo sapiens, read-out: GLP 1 Secretion): 5.48; pIC50 (HCT116; Homo sapiens, HCT-116, 72 h, read-out: HCT-116 viab. IC50, Table 2, basal, 72 h, Cell TiterGlo, non-adherent, 20 coded): < 4.70; pIC50 ([3]; Homo sapiens, HCT-116, read-out: HCT-116 (GSK3β) viab. IC50, Table 2, GSK3β inhibitor LY2090314 20 nM, 72 h, Cell TiterGlo, 20 coded): 5.33; pIC50 ([3]; Homo sapiens, HCT-116, HCT116 pretreated with GSK3b inhibitor, read-out: GSK3b inh pretreated_Viability ATP HCT116): 5.32; pIC50 (SW480; Homo sapiens, SW480, 72 h, Table 2; 72 h, Cell TiterGlo, non-adherent; 20 coded; read-out: SW480 viab. IC50): 5.23; pIC50 (SW480; Homo sapiens, SW480, read-out: Basal_Viability ATP SW480): 5.23; pIC50 (Colo320; Homo sapiens; basal; Colo 320; read-out: Basal_Viability ATP Colo 320): 5.31
6 | Cc1nc2ccccc2n1Cc1ccc(Cl)cc1 [1-P-chlorobenzyl-2-methylbenzimidazole] | – | – | – | – | – | – | – | – | – | – | – | – | – | – | – | – | – | – | pEC50 ([1]; IC50 / EC50, C2C12 beta-catenin translocation, read-out: Wnt Pathway): < 5.00; pIC50 (HT-29; basal, read-out: Basal_Viability ATP HT-29): < 4.70; pIC50 [2]: 5.13; pEC50 (NCI-H716 cells; IC50 / EC50, read-out: GLP 1 Secretion): < 5.00; pIC50 (HCT116; basal, read-out: Basal_Viability ATP HCT116): 5.91; pEC50 (INS-1E cells; IC50 / EC50, read-out: Insulin Secretion): < 5.00; pEC50 (HeLa cells; IC50 / EC50; HeLa; read-out: CellCycle G2/M): < 5.00; pIC50 (DLD-1; basal, read-out: Basal_Viability ATP DLD-1): < 4.70; pIC50 (SNU-C1; basal, read-out: Basal_Viability ATP SNU-C1): < 4.70; pIC50 ([3]; GSK3b inhibitor pretreated, read-out: GSK3b inh pretreated_Viability ATP HCT116): 4.92; pIC50 (SW480; basal; read-out: Basal_Viability ATP SW480): 5.27; pIC50 (Colo320; basal; read-out: Basal_Viability ATP Colo 320): 4.82
